In article PMC6407599 (Journal of Enzyme Inhibition and Medicinal Chemistry, 2019):
Several values for one entry are separate records, joined by “and”; a condition that tells them apart may be missing. Identical values can stand only once. Counter-ions that a name gives are not always drawn. Like-named read-outs stand apart in the source and are kept apart here. Square brackets hold non-standard residues; d marks the D form. Peptide text beside a SMILES is read from it. * marks the point of attachment. Lys(Me2) = CN(C)CCCC[C@H](N)C(=O)O; Lys(Me) = CNCCCC[C@H](N)C(=O)O; Cbz = O=C(OCc1ccccc1)*

Tests used:
[1] = Metabolism assay using human liver microsomes; assay type: in vitro ADME; conditions: for cleavage of acetyl or trifluoroacetyl group by human liver microsomes: 180 min incubation; for cleavage of acetyl group by human liver microsomes: after 10 min
Experimental: Human liver microsomes (Life Technologies Gibco cat. # HMMPCL) were thawed on ice and suspended in 100 mM phosphate buffer (pH 7.4) at 0.5 mg/mL. Compounds dissolved in DMSO were then added to the reaction mixture at a final concentration of 5 µM and a final DMSO concentration of 0.1%. Metabolism was initiated by adding 5 mM NADPH and the reactions were incubated at 37 °C in a water bath. Fifty microlitre aliquots of the reaction mixture were taken at various time points and added to 100 µL of cold methanol to terminate the reaction. The time points were centrifuged at 1000 × g for 5 min. Samples were stored at −20 °C until LC/MS analysis.
Using commercially available liver microsomes that contain the full set of endoplasmic reticulum-based metabolic enzymes, including Cyp450s, in an in vitro system the O- and N-dealkylation processes of LB55 were evaluated (Figure 3)[47–48]. Human liver microsomes were purchased from Life Technologies Australia Pty Ltd (catalogue number HMMCPL) and were prepared from a pool of 50 individual male and female donors. The microsomes were diluted into phosphate buffer at pH 7.4 and incubated with LB55 at 37 °C in the presence of the enzyme cofactor NADPH, which initiates the reactions. Aliquots of the reaction mixture were taken at several time points and quenched with cold methanol, which inhibits enzyme activity. The samples were immediately centrifuged at high speed to pellet the microsomes and the supernatants were analysed via LC/MS
However, for simplicity and speed of assessment we opted to identify the removal of the pro-drug moieties using LC/MS in selected-ion mode (SIM). We scanned for specific mass-to-charge ratios (m/z) based on the molecules molecular weight. […] LB55 was incubated with the human liver microsomes for 180 min and samples were taken at 0, 10, 20, 30, 60, 120, and 180 min and analysed via LC/MS in SIM mode. The scanning range was set at m/z 600–800, as this range would capture both the parent LB55 and any demethylated metabolites including LB51 (Figure 3).
Using the same commercially available liver microsomal assay described earlier, we evaluated the removal of acetylated and trifluoroacetylated amino acids. The studies were performed on three amino acids on LB51 that required protecting groups: serine, tyrosine, and lysine (Figure 4).

[2] = tested on: Hsp90-Cyp40 interaction (C-terminal domain of Hsp90 and full-length Cyp40); assay: AlphaLISA binding assay, Hsp90-Cyp40 interaction; conditions: for efficacy at inhibiting the binding event between Hsp90 and Cyp40: C-terminal domain of Hsp90 and full-length Cyp40; for IC50: C-terminal domain of Hsp90 and full-length Cyp40, DMSO (1%) = 100% binding, read-out: IC50, inhibition of Hsp90-Cyp40 interaction
Experimental: The binding assays were performed using an Hsp90 (C-terminal) Inhibitor Screening Kits (cat. 50314 or 50317) purchased from BPS Bioscience. The assay was performed according to the manufacturer's protocol and utilised AlphaLISA® technology (PerkinElmer). The test compounds were dissolved in 100% DMSO and diluted with water to the desired concentration, so that the final dilution was dissolved in 5% DMSO with water. Two microlitres of the dilution was added to a 10 µL reaction so that the final concentration of DMSO was 1% in all reactions. The reactions were conducted at room temperature for 30 min in a 10 µL mixture containing assay buffer, 6 ng (24 nM) of a C-terminal Hsp90β (UniProt P08238, a.a. 527–724) or C-terminal Hsp90α (UniProt P07900, a.a. 535–732), 40 ng (60 nM) Cyp40, and the test compound. Note: for the full-length Hsp90 binding assays, C-terminal Hsp90 was replaced with 24 nM of full-length Hsp90α (Abcam cat # ab48801). After the 30 min incubation, 10 µL of buffer containing 20 µg/mL glutathione acceptor beads (Perkin Elmer) were added to the reaction mix and incubated for 30 min in the dark. Ten microlitres of 40 µg/mL streptavidin donor beads (Perkin Elmer) were then added and the final 30 µL mixture was incubated for 1 h in the dark. The AlphaLISA® signal was measured using a Tecan F200 Pro multimode plate reader.
Modifications to the side chains using the common strategy of O- and N-alkylations were the first prodrugs produced (Figure 2). Compounds LB58, LB56, LB97, and LB55 were all based on the structure of LB51 but contained polar side chains that were masked with methyl moieties (Figure 2). […] However, masking groups often affect the target binding affinity, and evaluation of these molecules in binding assays was required. A biochemical assay using AlphaLISA technology was used to evaluate the efficacy of these molecules in blocking the interaction between Hsp90 and the co-chaperone, Cyp40 (Figure 2). Each compound was incubated at multiple concentrations with the C-terminal domain of Hsp90 and full-length Cyp40. Beads specific for each protein were incubated with the reaction mixture. When the two proteins are bound to each other, the beads for one protein transfer energy to the beads of the other protein, thereby producing a signal. When the binding interaction between the two proteins is inhibited, energy transfer cannot occur, which results in no signal being produced. DMSO (1%) was used as a control, where it represents 100% binding between the two proteins.
The alpha biochemical assay was used to evaluate the efficacy of these two molecules, LB51(Ac)2–Cbz and LB63(Ac)2–Cbz, in blocking the interaction between Hsp90 and the co-chaperone, Cyp40 (Figure 6(A)). Each compound was incubated at multiple concentrations with the C-terminal domain of Hsp90 and full-length Cyp40. DMSO (1%) was used as a negative control to represent 100% binding between the two proteins, and LB51 and LB63 were used as positive controls, inhibiting the binding event. LB51(Ac)2–Cbz was ineffective at inhibiting the interaction between Hsp90 and Cyp40 (Figure 6(a)).

Caco-2 = conditions: cited from earlier work; for apparent permeability Papp: Caco-2 assays
mouse liver = assay: Metabolism assay in a mouse (liver extract, LC/MS); assay type: in vivo; conditions: IP injection 59.4 mg/kg, 1 h
Experimental: Mice were purchased from Australian BioResources (ABR) (Moss Vale, NSW, Australia) at 7 weeks of age and shipped to a specific pathogen-free facility at UNSW Biological Resources Centre (Sydney, Australia) with 12 h light/dark cycles. Following 1 week of acclimatisation, mice were injected in the intraperitoneal space with LB55 (1.2 mg in 120 µL Milli-Q water). One hour later, mice were euthanised by CO2 asphyxiation and the liver was collected for drug extraction. All mouse experiments were approved by the UNSW Animal Care and Ethics Committee. To extract the compound for LC/MS analysis, the liver tissue was powdered in a mortar and pestle that had been pre-cooled with liquid nitrogen. The tissue was then homogenised in phosphate buffered saline (pH 7.4) by sonication for 2 h. The homogenate was then centrifuged at 800 × g for 10 min at 4 °C before collecting the supernatant. […] The extraction was then centrifuged at 1000 × g for 10 min at 4 °C and subsequently analysed by LC/MS.
The stability of LB55 in a mouse liver was accomplished by treating the mouse with LB55 via intraperitoneal (IP) injection at 59.4 mg/kg for 1 h. […] The mixture was then centrifuged, and the supernatant was analysed via LC/MS in SIM mode, scanning for parent LB55 and any demethylated metabolites including LB51.

C-terminal Hsp90β [3] = target: T1, C-terminal Hsp90β (UniProt P08238, a.a. 527–724) or C-terminal Hsp90α (UniProt P07900, a.a. 535–732) (UniProt P08238); assay: AlphaScreen or HTRF; AlphaLISA competition (BPS Bioscience kit): 24 nM C-terminal Hsp90, 60 nM Cyp40 and test compound in 10 µL assay buffer, 1% DMSO, room temperature, 30 min; then glutathione acceptor beads and streptavidin donor beads; DMSO = 100% binding
[4] = target: C-terminal Hsp90 (His-tagged, competitive binding assay); assay: pull-down; competitive binding: C-terminal Hsp90 (100 µM) with LB51-tag (100 µM) 1 h at RT, then untagged compound (0–100 µM) 1 h; captured on NeutrAvidin agarose, 6 washes; Hsp90 detected by Western blot with anti-6×His; DMSO = 100% binding
C-terminal Hsp90β [5] = target: T1, C-terminal Hsp90β; assay: AlphaScreen or HTRF; AlphaLISA competition (BPS Bioscience kit): 24 nM C-terminal Hsp90, 60 nM Cyp40 and test compound in 10 µL assay buffer, 1% DMSO, room temperature, 30 min; then glutathione acceptor beads and streptavidin donor beads; DMSO = 100% binding; remark: listed apart in the source

Sequence of C-terminal Hsp90 (His-tagged, competitive binding assay) (P08238 527-724): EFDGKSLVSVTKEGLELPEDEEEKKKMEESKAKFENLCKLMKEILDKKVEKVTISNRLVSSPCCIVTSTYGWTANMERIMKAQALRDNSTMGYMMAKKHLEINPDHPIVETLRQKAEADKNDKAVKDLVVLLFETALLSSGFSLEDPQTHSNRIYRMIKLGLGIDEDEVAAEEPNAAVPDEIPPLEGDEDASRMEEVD

Molecule: CC(=O)NCCCC[C@H](NC(=O)OCC1c2ccccc2-c2ccccc21)C(=O)O
- cleavage of acetyl or trifluoroacetyl group by human liver microsomes [1]: not cleaved

Molecule: O=C(N[C@@H](CCCCNC(=O)C(F)(F)F)C(=O)O)OCC1c2ccccc2-c2ccccc21 [Fmoc-Lys(Tfa)-OH]
- cleavage of acetyl or trifluoroacetyl group by human liver microsomes [1]: not cleaved

Molecule: CC(=O)OC[C@H](NC(=O)OCC1c2ccccc2-c2ccccc21)C(=O)O [Fmoc-Ser(Ac)-OH]
- cleavage of acetyl group by human liver microsomes [1]: mostly cleaved

Molecule: CC(=O)Oc1ccc(C[C@H](NC(=O)OCC2c3ccccc3-c3ccccc32)C(=O)O)cc1 [Fmoc-Tyr(Ac)-OH]
- cleavage of acetyl group by human liver microsomes [1]: mostly cleaved

Molecule: CC(=O)OC[C@@H]1NC(=O)[C@H](CC(N)=O)NC(=O)[C@H](CCCCNC(=O)OCc2ccccc2)NC(=O)[C@H](Cc2ccccc2)NC(=O)[C@H](Cc2ccc(OC(C)=O)cc2)NC1=O [LB51(Ac)2–Cbz, cyclo-Phe-Tyr(Ac)-Ser(Ac)-Asn-Lys(Cbz)] (cyclo(K(Cbz)NS(Ac)Y(Ac)F))
- efficacy at inhibiting the binding event between Hsp90 and Cyp40 [2]: ineffective

Molecule: NCCCC[C@@H]1NC(=O)[C@H](Cc2ccccc2)NC(=O)[C@H](Cc2ccc(O)cc2)NC(=O)[C@H](CO)NC(=O)[C@H](CC(N)=O)NC1=O [LB51] (cyclo(KNSYF))
- efficacy at inhibiting the binding event between Hsp90 and Cyp40 [2]: most effective
- IC50 [2]: 4 µM
- apparent permeability Papp (Caco-2): 3.3 ×10⁻⁶ cm/s and 3 ×10⁻⁶ cm/s
- membrane permeability Papp (Caco-2; backbone N-methylation study): 3 10^-6 cm/s

Molecule: COC[C@@H]1NC(=O)[C@H](CC(N)=O)NC(=O)[C@H](CCCCN(C)C)NC(=O)[C@H](Cc2ccccc2)NC(=O)[C@H](Cc2ccc(OC)cc2)NC1=O [LB55] (cyclo([Lys(Me2)]NS(Me)Y(Me)F))
- metabolism by human liver microsomes (LC/MS SIM) ([1]; 5 µM, NADPH, 37 °C, 180 min): no metabolism occurred
- metabolism in mouse liver (LC/MS of liver extract) (mouse liver): a small quantity of LB51 is produced
- apparent permeability Papp (Caco-2): 5.6 ×10⁻⁶ cm/s

Molecule: CC(=O)OC[C@@H]1NC(=O)[C@H](CC(N)=O)NC(=O)[C@H](CCCCNC(=O)OCc2ccccc2)NC(=O)[C@H](C)NC(=O)[C@H](Cc2ccc(OC(C)=O)cc2)NC1=O [LB63(Ac)2–Cbz, cyclo-Ala-Tyr(Ac)-Ser(Ac)-Asn-Lys(Cbz)] (cyclo(K(Cbz)NS(Ac)Y(Ac)A))
- IC50 [2]: 10 µM

Molecule: C[C@@H]1NC(=O)[C@H](Cc2ccc(O)cc2)NC(=O)[C@H](CO)NC(=O)[C@H](CC(N)=O)NC(=O)[C@H](CCCCN)NC1=O [LB63] (cyclo(KNSYA))
- IC50 [2]: 2 µM
- apparent permeability Papp (Caco-2): 0.9 ×10⁻⁶ cm/s

Molecule: CNCCCC[C@@H]1NC(=O)[C@H](Cc2ccccc2)NC(=O)[C@H](Cc2ccc(OC)cc2)NC(=O)[C@H](CO)NC(=O)[C@H](CC(N)=O)NC1=O [LB97] (cyclo([Lys(Me)]NSY(Me)F))
- efficacy at inhibiting the binding event between Hsp90 and Cyp40 [2]: most effective
- apparent permeability Papp (Caco-2): 1.9 ×10⁻⁶ cm/s

Molecule: KNSYA (head-to-tail cyclic) [LB63]
- IC50 (C-terminal Hsp90β [3]): 2 µM

B1: LB63(Ac)2–Cbz (peptide)
peptide: cyclo(K(Cbz)NS(Ac)Y(Ac)A)
SMILES: CC(=O)OC[C@@H]1NC(=O)[C@H](CC(N)=O)NC(=O)[C@H](CCCCNC(=O)OCc2ccccc2)NC(=O)[C@H](C)NC(=O)[C@H](Cc2ccc(OC(C)=O)cc2)NC1=O
- IC50 [4]: 20 µM
- IC50 (C-terminal Hsp90β [3]): 10 µM
- IC50 (C-terminal Hsp90β [5]): > 10 µM

B2: LB51(Ac)2–Cbz (peptide)
peptide: cyclo(K(Cbz)NS(Ac)Y(Ac)F)
SMILES: CC(=O)OC[C@@H]1NC(=O)[C@H](CC(N)=O)NC(=O)[C@H](CCCCNC(=O)OCc2ccccc2)NC(=O)[C@H](Cc2ccccc2)NC(=O)[C@H](Cc2ccc(OC(C)=O)cc2)NC1=O
- IC50 (C-terminal Hsp90β [5]): > 10 µM

Molecule: KNSYF (head-to-tail cyclic) [LB51]
- IC50 (C-terminal Hsp90β [3]): 4 µM
